# How the values were obtained:
# Type in all cases: in vivo
# [1] = tested on: Italian ryegrass (Lolium multiflorum); assay: Test A postemergence, visual plant response rating; details: for Ryegrass, Italian plant response rating (0 to 100 scale): 500 g ai/ha, postemergence, 0 is no effect, 100 is complete control; for Ryegrass, Italian plant response rating: Postemergence, 125 g ai/ha, 0 to 100 scale (0 no effect, 100 complete control)
# Summary of the method: (§1)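 Compared with untreated controls, treated plants received a visual injury score on a 0–100 scale around 10 days after application. The compound, in a non-phytotoxic solvent with surfactant, was given as a preemergence soil spray or postemergence at the one- to two-leaf stage.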
# [2] = tested on: galium (catchweed bedstraw, Galium aparine); assay: Test A postemergence, visual plant response rating; details: for Galium plant response rating (0 to 100 scale): 500 g ai/ha, postemergence, 0 is no effect, 100 is complete control; for Galium plant response rating: Postemergence, 125 g ai/ha, 0 to 100 scale (0 no effect, 100 complete control)
# Summary of the method: as §1
# [3] = tested on: blackgrass (Alopecurus myosuroides); assay: Test A postemergence, visual plant response rating; details: for Blackgrass plant response rating (0 to 100 scale): 500 g ai/ha, postemergence, 0 is no effect, 100 is complete control; for Blackgrass plant response rating: Postemergence, 125 g ai/ha, 0 to 100 scale (0 no effect, 100 complete control)
# Summary of the method: as §1
# [4] = tested on: foxtail, green (green foxtail, Setaria viridis); assay: Test A postemergence, visual plant response rating; details: for Foxtail, Green plant response rating (0 to 100 scale): 500 g ai/ha, postemergence, 0 is no effect, 100 is complete control; for Foxtail, Green plant response rating: Postemergence, 125 g ai/ha, 0 to 100 scale (0 no effect, 100 complete control)
# Summary of the method: as §1
# [5] = tested on: kochia (Kochia scoparia); assay: Test A postemergence, visual plant response rating; details: for Kochia plant response rating (0 to 100 scale): 500 g ai/ha, postemergence, 0 is no effect, 100 is complete control; for Kochia plant response rating: Postemergence, 125 g ai/ha, 0 to 100 scale (0 no effect, 100 complete control)
# Summary of the method: as §1
# [6] = tested on: ragweed (common ragweed, Ambrosia elatior); assay: Test A postemergence, visual plant response rating; details: for Ragweed plant response rating (0 to 100 scale): 500 g ai/ha, postemergence, 0 is no effect, 100 is complete control; for Ragweed plant response rating: Postemergence, 125 g ai/ha, 0 to 100 scale (0 no effect, 100 complete control)
# Summary of the method: as §1
# [7] = tested on: corn (Zea mays); assay: Test A postemergence, visual plant response rating; details: for Corn plant response rating (0 to 100 scale): 500 g ai/ha, postemergence, 0 is no effect, 100 is complete control; for Corn plant response rating: Postemergence, 125 g ai/ha, 0 to 100 scale (0 no effect, 100 complete control)
# Summary of the method: as §1
# [8] = tested on: pigweed (Amaranthus retroflexus); assay: Test A postemergence, visual plant response rating; details: for Pigweed plant response rating (0 to 100 scale): 500 g ai/ha, postemergence, 0 is no effect, 100 is complete control; for Pigweed plant response rating: Postemergence, 125 g ai/ha, 0 to 100 scale (0 no effect, 100 complete control)
# Summary of the method: as §1
# [9] = tested on: barnyardgrass (Echinochloa crus-galli); assay: Test A postemergence, visual plant response rating; details: for Barnyardgrass plant response rating (0 to 100 scale): 500 g ai/ha, postemergence, 0 is no effect, 100 is complete control; for Barnyardgrass plant response rating: Postemergence, 125 g ai/ha, 0 to 100 scale (0 no effect, 100 complete control)
# Summary of the method: as §1
# [10] = tested on: wheat (Triticum aestivum); assay: Test A postemergence, visual plant response rating; details: for Wheat plant response rating (0 to 100 scale): 500 g ai/ha, postemergence, 0 is no effect, 100 is complete control; for Wheat plant response rating: Postemergence, 125 g ai/ha, 0 to 100 scale (0 no effect, 100 complete control)
# Summary of the method: as §1
# [11] = tested on: sedge, umbrella (small-flower umbrella sedge, Cyperus difformis); assay: Test B flooded paddy test, visual plant response rating; details: 250 g ai/ha, Flood, applied to paddy water, 2-leaf stage, evaluated after 13 to 15 days
# Summary of the method: (§2)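 Compounds added straight into paddy water of pots flooded to 3 cm, with 2-leaf-stage plants of the four species; water level held throughout.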
# [12] = tested on: rice (Oryza sativa); assay: as above; details: 250 g ai/ha, Flood, applied to paddy water, 2-leaf stage, evaluated after 13 to 15 days
# Summary of the method: as §2
# [13] = tested on: barnyardgrass (Echinochloa crus-galli); assay: as above; details: 250 g ai/ha, Flood, applied to paddy water, 2-leaf stage, evaluated after 13 to 15 days
# Summary of the method: as §2
# [14] = tested on: ducksalad (Heteranhera limosa); assay: as above; details: 250 g ai/ha, Flood, applied to paddy water, 2-leaf stage, evaluated after 13 to 15 days
# Summary of the method: as §2
# [15] = tested on: Italian ryegrass (Lolium multiflorum); assay: Test A preemergence, visual plant response rating; details: for Ryegrass, Italian plant response rating (0 to 100 scale): approx. 10 days
# Summary of the method: as §1
# [16] = tested on: foxtail, green (green foxtail, Setaria viridis); assay: Test A preemergence, visual plant response rating; details: for Foxtail, Green plant response rating (0 to 100 scale): approx. 10 days
# Summary of the method: as §1
# [17] = tested on: kochia (Kochia scoparia); assay: Test A preemergence, visual plant response rating; details: for Kochia plant response rating (0 to 100 scale): approx. 10 days
# Summary of the method: as §1
# [18] = tested on: ragweed (common ragweed, Ambrosia elatior); assay: Test A preemergence, visual plant response rating; details: for Ragweed plant response rating (0 to 100 scale): approx. 10 days
# Summary of the method: as §1
# [19] = tested on: pigweed (Amaranthus retroflexus); assay: Test A preemergence, visual plant response rating; details: for Pigweed plant response rating (0 to 100 scale): approx. 10 days
# Summary of the method: as §1
# [20] = tested on: barnyardgrass (Echinochloa crus-galli); assay: Test A preemergence, visual plant response rating; details: for Barnyardgrass plant response rating (0 to 100 scale): approx. 10 days
# Summary of the method: as §1
# [21] = 125 g ai/ha, preemergence, 0 to 100 scale, 0 no effect, 100 complete control
Compound,"Ryegrass, Italian plant response rating (0 to 100 scale) [1]","Ryegrass, Italian plant response rating [1]",Galium plant response rating (0 to 100 scale) [2],Galium plant response rating [2],Blackgrass plant response rating (0 to 100 scale) [3],Blackgrass plant response rating [3],"Foxtail, Green plant response rating (0 to 100 scale) [4]","Foxtail, Green plant response rating [4]",Kochia plant response rating (0 to 100 scale) [5],Kochia plant response rating [5],Ragweed plant response rating (0 to 100 scale) [6],Ragweed plant response rating [6],Corn plant response rating (0 to 100 scale) [7],Corn plant response rating [7],Pigweed plant response rating (0 to 100 scale) [8],Pigweed plant response rating [8],Barnyardgrass plant response rating (0 to 100 scale) [9],Barnyardgrass plant response rating [9],Wheat plant response rating (0 to 100 scale) [10],Wheat plant response rating [10],other results
CO/N=C(/c1c(O)c(C)nn(C)c1=O)c1cccc2ccccc12 [Compound 31],90,60,90,90,90,80,80,50,80,70,90,70,50,20,90,60,90,40,20,0,"Plant response rating, Sedge, Umbrella (0 to 100 scale, 0 is no effect, 100 is complete control) [11]: 0; Plant response rating, Rice (0 to 100 scale, 0 is no effect, 100 is complete control) [12]: 40; Plant response rating, Barnyardgrass (0 to 100 scale, 0 is no effect, 100 is complete control) [13]: 25; Plant response rating, Ducksalad (0 to 100 scale, 0 is no effect, 100 is complete control) [14]: 0; Ryegrass, Italian plant response rating (0 to 100 scale) ([15]; 125 g ai/ha Preemergence): 40; Ryegrass, Italian plant response rating (0 to 100 scale) ([15]; 500 g ai/ha Preemergence): 70; Foxtail, Green plant response rating (0 to 100 scale) ([16]; 125 g ai/ha Preemergence): 30; Foxtail, Green plant response rating (0 to 100 scale) ([16]; 500 g ai/ha Preemergence): 90; Kochia plant response rating (0 to 100 scale) ([17]; 125 g ai/ha Preemergence): 10; Kochia plant response rating (0 to 100 scale) ([17]; 500 g ai/ha Preemergence): 90; Ragweed plant response rating (0 to 100 scale) ([18]; 125 g ai/ha Preemergence): 30; Ragweed plant response rating (0 to 100 scale) ([18]; 500 g ai/ha Preemergence): 80; Pigweed plant response rating (0 to 100 scale) ([19]; 125 g ai/ha Preemergence): 40; Pigweed plant response rating (0 to 100 scale) ([19]; 500 g ai/ha Preemergence): 90; Barnyardgrass plant response rating (0 to 100 scale) ([20]; 125 g ai/ha Preemergence): 10; Barnyardgrass plant response rating (0 to 100 scale) ([20]; 500 g ai/ha Preemergence): 70"
CO/N=C(/c1ccccc1Cl)c1c(O)c(C)nn(C)c1=O [Compound 63],70,30,80,60,80,10,10,0,30,10,50,30,0,0,50,30,0,0,20,0,"Plant response rating, Sedge, Umbrella (0 to 100 scale, 0 is no effect, 100 is complete control) [11]: 0; Plant response rating, Rice (0 to 100 scale, 0 is no effect, 100 is complete control) [12]: 0; Plant response rating, Barnyardgrass (0 to 100 scale, 0 is no effect, 100 is complete control) [13]: 0; Plant response rating, Ducksalad (0 to 100 scale, 0 is no effect, 100 is complete control) [14]: 0; Ryegrass, Italian plant response rating [15, 21]: 10; Ryegrass, Italian plant response rating (0 to 100 scale) ([15]; 500 g ai/ha Preemergence): 50; Foxtail, Green plant response rating [16, 21]: 0; Foxtail, Green plant response rating (0 to 100 scale) ([16]; 500 g ai/ha Preemergence): 20; Kochia plant response rating [17, 21]: 0; Kochia plant response rating (0 to 100 scale) ([17]; 500 g ai/ha Preemergence): 20; Ragweed plant response rating [18, 21]: 30; Ragweed plant response rating (0 to 100 scale) ([18]; 500 g ai/ha Preemergence): 70; Pigweed plant response rating [19, 21]: 0; Pigweed plant response rating (0 to 100 scale) ([19]; 500 g ai/ha Preemergence): 80; Barnyardgrass plant response rating [20, 21]: 0; Barnyardgrass plant response rating (0 to 100 scale) ([20]; 500 g ai/ha Preemergence): 0"
